Earlier results as cited in US20080146664A1, “Method for treating diseases caused by accumulation of body fat” (priority 2006, published 2008).

Settings: addition of conjugated linoleic acid

Substance: conjugated linoleic acid
- lipodystrophy-like symptoms (fatty liver, splenic hypertrophy, disappearance of brown fat): generated
- pattern of adipose tissue decrease: partial decrease in adipose tissue
- significant decrease in the parametrial adipose tissue: not observed
- significant decrease in the weight of the liver: not observed
